Data: patent US11389456B2, “Compounds and methods for treating oxalate-related diseases” (OxaluRx, Inc., priority 2018, dated 2022)
pIC50: −log10 of the molar value. Read-outs that look alike come from different tables or passages of the source.

How the values were obtained:
[1] = biological target: recombinant full-length human hydroxyacid oxidase 1 (HAO1), the equivalent of hGOX (Homo sapiens (Human), UniProt Q9UJM8); test: In-vitro human glycolate oxidase (hGOX) assay (Amplex red/HRP fluorescence); assay type: biochemical
Method: Biological Activity Assay: In-Vitro Human Glycolate Oxidase (hGOX) Assay
The in-vitro glycolate oxidase assay was performed using recombinant full-length human hydroxyacid oxidase 1 (HAO1), the equivalent of hGOX. […] Purified HAO1 was dissolved in assay buffer consisting of 10 mM NaCl, 110 mM KCl, 2 mM MgCl2, 50 mM HEPES (pH 7.4) and 0.01% Triton™ X-100.

[2] = Stability in human plasma; assay type: in vitro ADME; conditions: read-out: Plasma Stability T1/2
Method: Stability in Human Plasma.
Stock compounds were prepared for testing the stability in human plasma. First, 0.05 M sodium phosphate and 0.07 M NaCl buffer, pH 7.4, were pre-heated. In deionized water, 14.505 g/L Na2HPO 12H2O, 1.483 g/L NaH2PO4.2H2O and 4.095 g/L NaCl were dissolved. The basic solution was titrated with the phosphoric acid to pH 7.40. Frozen plasma was quickly thawed at 37° C. The plasma was centrifuged at 3,000 rpm for 8 minutes to remove clots, then pipetted and pooled as the plasma stock for the experiment. Only plasma within the range of pH 7.4 to pH 8 was used. If higher than pH 8, the plasma was discarded. The initial pH of the plasma was not adjusted to pH 7.4 with acid or by bubbling with carbon dioxide. By using a 5% carbon dioxide incubator and PBS buffer, a pH of 7.4 will be reached after the 4-hour equilibrium dialysis time. Plasma was iced until use.
Spiking solution A with 0.5 mM testing compounds was prepared by adding 10 μL of 10 mM test compounds stock solution to 190 μL DMSO. Spiking solution B with 0.02 mM testing compound was prepared by adding 40 μL of spiking solution A to 960 μL of […] sodium phosphate buffer with 0.5% BSA. The plasma and spiking solution B were prewarmed at 37° C. for 5 minutes. Ten μL of pre-warmed spiking solution B was added into the wells designated for all the time points (5, 15, 30, 45, 60 minutes). For the 0-minute timepoint, 400 μL acetonitrile containing internal standard were added to the wells of 0-minute plate and then 90 μL plasma were added. For the other timepoints, 90 μL of pre-warmed plasma were added into the wells (0, 5, 15, 30, 45, 60 minutes) and the timing was started. At 5, 15, 30, 45, 60 minutes, 400 μL acetonitrile containing internal standard were added to the wells of corresponding plates, respectively, to stop the reaction. After quenching, the plates were shaken on a vibrator (IKA, MTS 2/4) for 10 minutes at 600 rpm and then centrifuged at 5594×g for 15 minutes (Thermo Multifuge×3R). Fifty μL of supernatant was transferred from each well into a 96-well sample plate containing 50 μL ultra-pure water (Millipore, ZMQS50F01) for LC/MS analysis.

[3] = Protein binding (plasma equilibrium dialysis); assay type: in vitro ADME; conditions: 5 hours at 37° C.; for fraction unbound at 5 h, 1 μM: read-out: Protein Binding Fraction Bound (converted)
Method: For testing protein binding of stock compounds solubilized in DMSO, spiking solutions of test and reference compounds were prepared. Solution A (0.5 mM) was prepared by adding 10 μL of 10 mM stock solution into 190 μL of DMSO. Solution B (0.02 mM) was prepared by adding 8 μL of Solution A into 192 μL of 0.05 M sodium phosphate buffer. The final DMSO concentration in Solution B was 4%.
To prepare test and reference compounds in plasma, a 96-well plate with 380 μL aliquots of plasma in the wells designed for plasma and buffer, respectively. Twenty μL of Solution B (0.02 mM of test and reference compounds) were spiked into the pre-loaded plasma in the 96-well plate. The final test concentration is 1 μM containing 0.2% DMSO.
For dialysis sample loading a plasma again buffer system was prepared by applying aliquots of 100 μL of blank dialysis buffer to the receiver side of dialysis chambers and then applying aliquots of 100 μL of the plasma spiked with test and reference compounds to the donor side of the dialysis chamber. A 25-μL aliquot of the plasma spiked with test and reference compounds was added into a 96-well sample preparation plate as T″0″ plasma samples. Aliquots were mixed with the same volume of blank buffer (50:50, volume:volume). Samples were quenched with 200 μL of acetonitrile containing internal standard. The dialysis block was covered and a shaken at 60 rpm for 5 hours at 37° C.
After a 5-hour incubation, dialyzed samples were prepared from 25-μL aliquots from both the donor and receiver sides of the dialysis apparatus into new sample preparation plates. The aliquots were mixed with same volume of opposite matrixes. The samples were quenched with 200 μL acetonitrile containing internal standard. All 0-hour and 5-hour samples were vortexed at 600 rpm for 10 min followed by centrifugation at 5594×g for 15 minutes (Thermo Multifuge×3R). Fifty μL of the supernatants were transferred to anew 96-well plate and mixed with 50 μL Milli-Q water. The sample plate was covered and frozen at −20° C. until LC/MS/MS analysis.

[4] = 12.5 nM HAO1, 85 μM glycolate, 2.5% DMSO, read-out: IC50

Sequence of recombinant full-length human hydroxyacid oxidase 1 (HAO1), the equivalent of hGOX (Q9UJM8 whole entry): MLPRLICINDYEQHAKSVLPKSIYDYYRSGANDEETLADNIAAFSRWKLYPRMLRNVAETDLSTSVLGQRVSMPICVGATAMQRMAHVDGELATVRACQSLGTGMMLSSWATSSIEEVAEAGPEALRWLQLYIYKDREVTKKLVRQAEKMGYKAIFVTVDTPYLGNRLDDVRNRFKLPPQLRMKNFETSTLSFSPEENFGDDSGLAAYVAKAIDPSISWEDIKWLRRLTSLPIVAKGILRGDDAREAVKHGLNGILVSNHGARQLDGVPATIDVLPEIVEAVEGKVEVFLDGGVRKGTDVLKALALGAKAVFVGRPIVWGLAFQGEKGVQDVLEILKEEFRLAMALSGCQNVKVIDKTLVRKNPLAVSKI

pIC50 [1, 4] | SMILES | other results
6.59 | COc1ccc(Oc2[nH]nnc2C(=O)O)cc1 [Example I-035, 5-(4-Methoxyphenoxy)-1H-1,2,3-triazole-4-carboxylic acid] | –
6.44 | O=C(O)c1nn[nH]c1Oc1ccccc1 [Example I-057, 5-Phenoxy-1H-1,2,3-triazole-4-carboxylic acid] | –
8.40 | C#Cc1ccc(Oc2[nH]nnc2C(=O)O)cc1 [Example I-297, 5-(4-Ethynylphenoxy)-1H-1,2,3-triazole-4-carboxylic acid] | –
6.89 | O=C(O)c1nn[nH]c1Sc1cccc(F)c1 [Example I-015, 5-((3-Fluorophenyl)thio)-1H-1,2,3-triazole-4-carboxylic acid] | –
3.37 | CCOC(=O)c1nn[nH]c1Sc1ccccc1F [Example I-014, Ethyl 5-((2-fluorophenyl)thio)-1H-1,2,3-triazole-4-carboxylate] | –
< 3.30 | CCOC(=O)c1nn[nH]c1Sc1ccc(OC)cc1 [Example I-005, Ethyl 5-((4-Methoxyphenyl)thio)-1H-1,2,3-triazole-4-carboxylate] | –
7.48 | O=C(O)c1nn[nH]c1Oc1ccc(-c2cc(Cl)cc(Cl)c2)cc1 [Example I-300, 5-((3′,5′-Dichloro-[1,1′-biphenyl]-4-yl)oxy)-1H-1,2,3-triazole-4-carboxylic acid] | –
6.64 | Cc1ccc(Sc2[nH]nnc2C(=O)O)c(C)c1 [Example I-009, 5-((2,4-Dimethylphenyl)thio)-1H-1,2,3-triazole-4-carboxylic acid] | –
– | O=C(O)c1nn[nH]c1Oc1ccc(S(F)(F)(F)(F)F)cc1 [Example I-049, 5-(4-Pentafluorosulfanylphenoxy)-1H-1,2,3-triazole-4-carboxylic acid] | pIC50 [1]: 7.30; half-life at 2 μM [2]: 3.65 h; recovery at 5 h, 1 μM [3]: 107%; fraction unbound at 5 h, 1 μM [3]: 0.006
7.13 | O=C(O)c1nn[nH]c1Oc1cccc(C2CC2)c1 [Example I-293, 5-(3-Cyclopropylphenoxy)-1H-1,2,3-triazole-4-carboxylic acid] | –
< 5.00 | O=C(O)c1nn[nH]c1OCc1ccc(Br)cc1 [Example I-085, 5-((4-Bromobenzyl)oxy)-1H-1,2,3-triazole-4-carboxylic acid] | –
7.21 | Cc1cc(Oc2[nH]nnc2C(=O)O)ccc1F [Example I-306, 5-(4-Fluoro-3-methylphenoxy)-1H-1,2,3-triazole-4-carboxylic acid] | –
6.64 | CC(C)c1cccc(Oc2[nH]nnc2C(=O)O)c1 [Example I-278, 5-(3-Isopropylphenoxy)-1H-1,2,3-triazole-4-carboxylic acid] | –
5.97 | COc1cc(OC)cc(-c2ccc(Oc3[nH]nnc3C(=O)O)cc2)c1 [Example I-301, 5-((3′,5′-Dimethoxy-[1,1′-biphenyl]-4-yl)oxy)-1H-1,2,3-triazole-4-carboxylic acid] | –
5.64 | COc1ccccc1Sc1[nH]nnc1C(=O)O [Example I-006, 5-((2-Methoxyphenyl)thio)-1H-1,2,3-triazole-4-carboxylic acid] | –
– | COc1ccc(-c2ccc(Oc3[nH]nnc3C(=O)O)cc2)cc1 [Example I-153, 5-((4′-Methoxy-[1,1′-biphenyl]-4-yl)oxy)-1H-1,2,3-triazole-4-carboxylic acid] | pIC50 [1]: 8.00; half-life at 2 μM [2]: 3.11 h; recovery at 5 h, 1 μM [3]: 116%; fraction unbound at 5 h, 1 μM [3]: 0.103
7.57 | O=C(O)c1nn[nH]c1Oc1cccc(-c2ccc(OC(F)(F)F)c(F)c2)c1 [Example I-311, 5-((3′-Fluoro-4′-(trifluoromethoxy)-[1,1′-biphenyl]-3-yl)oxy)-1H-1,2,3-triazole-4-carboxylic acid] | –
7.37 | O=C(O)c1[nH]nnc1Sc1ccc(Cl)c(Cl)c1 [Example I-025, 5-((3,4-Dichlorophenyl)thio)-1H-1,2,3-triazole-4-carboxylic acid] | –
3.60 | CCOC(=O)c1nn[nH]c1Sc1ccccc1Cl [Example I-012, Ethyl 5-((2-chlorophenyl)thio)-1H-1,2,3-triazole-4-carboxylate] | –
8.30 | O=C(O)c1nn[nH]c1Oc1ccc(-c2ccc(OC(F)(F)F)c(F)c2)cc1 [Example I-310, 5-((3′-Fluoro-4′-(trifluoromethoxy)-[1,1′-biphenyl]-4-yl)oxy)-1H-1,2,3-triazole-4-carboxylic acid] | –
7.15 | O=C(O)c1nn[nH]c1Sc1ccc(Br)cc1 [Example I-007, 5-((4-Bromophenyl)thio)-1H-1,2,3-triazole-4-carboxylic acid] | –
7.47 | O=C(O)c1nn[nH]c1Oc1ccc(Cl)c(F)c1 [Example I-308, 5-(4-Chloro-3-fluorophenoxy)-1H-1,2,3-triazole-4-carboxylic acid] | –
< 3.30 | CCOC(=O)c1nn[nH]c1Sc1ccc(Br)cc1 [Example I-008, Ethyl 5-((4-bromophenyl)thio)-1H-1,2,3-triazole-4-carboxylate] | –
5.31 | O=C(O)c1nn[nH]c1Sc1nc2ccccc2s1 [Example I-032, 5-(Benzo[d]thiazol-2-ylthio)-1H-1,2,3-triazole-4-carboxylic acid] | –
7.10 | CCc1cccc(Oc2[nH]nnc2C(=O)O)c1 [Example I-295, 5-(3-Ethylphenoxy)-1H-1,2,3-triazole-4-carboxylic acid] | –
< 3.30 | CCOC(=O)c1nn[nH]c1Nc1ccc(OC)cc1 [Example I-289, Ethyl 5-((4-methoxyphenyl)amino)-1H-1,2,3-triazole-4-carboxylate] | –
6.09 | O=C(O)c1nn[nH]c1Sc1ccc(C(F)(F)F)cc1 [Example I-016, 5-((4-(Trifluoromethyl)phenyl)thio)-1H-1,2,3-triazole-4-carboxylic acid] | –
